What all share (assay): Antibacterial activity in vitro, agar diffusion method in Davis Mingioli medium
Holding throughout (assay type): cell-based

Test [1] has as its system Salmonella typhimurium MZ11. As to conditions: Salmonella enterica, 100 mg/l aqueous solution in 9 mm wells, incubation 24 h at 37°C, read-out: zones d'inhibition (diamètre en mm). The method, then:
(§1) L'activité antibactérienne des produits revendiqués a été déterminée par la méthode de diffusion en milieu de Davis Mingioli additionné de 1% d'agar. Les géloses utilisées sont coulées en boîtes de Petri à 48°C, après ensemencement à […] au moyen de la souche bactérienne test. Les inocula proviennent d'une pré-culture de 24 heures en bouillon de Davis Mingioli. Après durcissement des géloses, les solutions aqueuses des produits étudiés sont introduites dans des puits (9 mm) creusés dans le milieu à l'aide d'un emporte-pièce. Les zones d'inhibition observées (diamètre en mm) sont mesurées après incubation de 24 heures à 37°C.

Another test has as its system Escherichia Coli 078. To be noted: COLI078, 100 mg/l aqueous solution in 9 mm wells, incubation 24 h at 37°C, read-out: zones d'inhibition (diamètre en mm). The procedure:
as §1

Test [2] deals with Enterobacter cloacae 1321E. As to conditions: 100 mg/l aqueous solution in 9 mm wells, incubation 24 h at 37°C, read-out: zones d'inhibition (diamètre en mm). The method, then: as §1
Another test relates to Providencia sp. DU48. To be noted: 100 mg/l aqueous solution in 9 mm wells, incubation 24 h at 37°C, read-out: zones d'inhibition (diamètre en mm). The method, then:
as §1

Data on three molecules can be found in patent EP0394118B1, “2,6-Aminoheptanedioic acid unsaturated derivatives, process for their preparation and their use as medicaments” (ROUSSEL-UCLAF, priority 1989, dated 1990).

Consider `C=CC(N)(CC(=C)CC(N)C(=O)O)C(=O)O` (stereo not drawn) [exemple 4, Acide 2,6-diamino 2-éthényl 4-méthylène heptanedioïque], for which the zone of inhibition at 100 µg/mL in test [1] was determined as 31 mm; in the test with Escherichia Coli 078, 17.5 mm; in test [2], 26 mm; in the test on Providencia sp. DU48 it was 29 mm.

Regarding `C#CC(N)(CC(=C)CC(NCc1ccccc1)C(=O)O)C(=O)O` (stereo not drawn) [exemple 10, Acide 2-amino 2-éthynyl 4-méthylène 6-[(phénylméthyl)amino] heptanedioïque], the zone of inhibition at 100 µg/mL in test [1] came out at 19 mm.

Turning to `C=C(CC(N)C(=O)O)CC(N)(CC)C(=O)O` (stereo not drawn) [exemple 7, Acide 2,6-diamino 2-éthyl 4-méthylène heptanedioïque], the zone of inhibition at 100 µg/mL amounted to 34 mm in test [1], 18 mm with Escherichia Coli 078, 29 mm in test [2] and 28 mm in the test on Providencia sp. DU48.
